Data published in article PMC7996082, “The translocator protein ligands as mitochondrial functional modulators for the potential anti-Alzheimer agents” (Journal of Enzyme Inhibition and Medicinal Chemistry, 2021).

Legend:
[1] = system: transgenic AD model mice (APPswe/PSEN1dE9); test: Contextual fear conditioning test in transgenic AD model mice; type: in vivo, mouse; settings: Tg AD model mice, 30 mg/kg daily, 1 month, PO
Protocol: The acute AD mice model was prepared by administration of Aβ1-42 solution (10% DMSO/90% PBS) to male ICR mice (6 weeks old, 30 − 33 g) via intracerebroventricular (ICV) injection (Aβ1-42 dose: 500 pmol/mouse) as described previously. The wild type mice (B6C3F1) and double APP/PS1 transgenic mice (Tg AD mice model; APPswe/PSEN1dE9) were purchased from Jackson Laboratory (Bar Harbour, ME, USA). The Tg AD model mice were 11 months old at the beginning of the behaviour test, and were housed for 1 month in a room under controlled temperature and fed ad libitum. The behaviour tests were conducted during daytime in air-controlled and soundproof experiment room. The animal experiments were abided by the guidelines of the Institutional Animal Care and Use Committee of Korea Institute of Science and Technology.
To the Tg mice of the AD model (n = 7 per group), each test compound (30 mg/kg) was orally administrated daily for 1 month. […] Freezing response was measured by the fear conditioning system without application of CS or US.
In addition, we assessed recovery effects of compound 7 by performing contextual fear conditioning tests.[40] Healthy mice show higher number of total freezing, which is an index of fear learning and memory of rodents; therefore, the number of total freezing responses under fear-relevant stimuli was measured with the compound-treated Tg AD model mice. […]

[2] = system: HT22 cells treated with Aβ; test: Cellular ROS assay (DCFDA): inhibition of Aβ-induced ROS generation; type: cell-based, mouse; settings: Mus musculus, HT-22, 5 μM compound
Protocol: Among 56 compounds, 23 compounds were selected and further tested for the luciferase-based ATP assay. […] Thus, we chose these two compounds and further evaluated their biological activity by measuring cell viability and reactive oxygen species (ROS) production. The effects on cell viability of each compound under Aβ-induced cytotoxicity were determined by measuring the metabolic activity of NAD(P)H-dependent cellular oxidoreductases using the 3–(4,5-dimethylthiazol-2-yl)-2,5-diphenyl-tetrazolium bromide (MTT) dye. To measure cellular ROS levels, we used a fluorescence indicator, 2′,7′-dichlorofluorescein diacetate (DCFDA), and calculated the percent inhibition of ROS generation by applying the same method used for MTT assays. Compound 7 inhibited Aβ-induced ROS generation (97% at 5 µM) almost to the level of the untreated control (Table 1). […] On the basis of the in vitro activity, we selected compound 7 as the best hit from the initial screening library.

[3] = system: transgenic AD model mice (APPswe/PSEN1dE9); test: Y-maze spontaneous alternation test in transgenic AD model mice; type: in vivo, mouse; settings: Tg APPswe/PSEN1dE9 mice, 30 mg/kg daily, 1 month, PO

CCOc1ccc(-n2c(SCC(=O)Nc3ccc(OC)c(OC)c3)nc3sc4c(c3c2=O)CCN(C(C)=O)C4)cc1 [Compound 7]
Contextual fear conditioning: percent recovery of freezing [1]: 62% | inhibition at 5 µM [2]: 97% | Recovery of Y-maze spontaneous alternations [3]: 50%
